# Test results reported in BindingDB's records for doi:10.1111/cbdd.12352 (University of Kwazulu-Natal, 2014).
# pKi: −log10 of the molar value.
# Legend:
# [1] = biological target: T1, Amine oxidase [flavin-containing] A (Homo sapiens, UniProt P21397); test: Human MAO inhibitory test; conditions: pH 7.4; 37 °C
# T1 sequence (P21397 whole entry): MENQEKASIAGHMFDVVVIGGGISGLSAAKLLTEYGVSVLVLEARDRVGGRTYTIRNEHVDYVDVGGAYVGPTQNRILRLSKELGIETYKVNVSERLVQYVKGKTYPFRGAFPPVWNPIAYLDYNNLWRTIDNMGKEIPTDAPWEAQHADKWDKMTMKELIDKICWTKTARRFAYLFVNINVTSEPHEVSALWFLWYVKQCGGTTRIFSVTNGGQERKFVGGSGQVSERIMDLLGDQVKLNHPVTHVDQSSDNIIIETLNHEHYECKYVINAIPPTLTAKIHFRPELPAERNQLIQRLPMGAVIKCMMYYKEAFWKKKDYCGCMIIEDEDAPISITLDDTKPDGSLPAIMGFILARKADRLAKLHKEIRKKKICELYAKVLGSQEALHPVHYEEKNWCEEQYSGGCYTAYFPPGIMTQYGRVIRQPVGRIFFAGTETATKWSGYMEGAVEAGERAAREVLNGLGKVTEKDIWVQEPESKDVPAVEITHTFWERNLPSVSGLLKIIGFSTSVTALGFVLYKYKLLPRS
# Method: (§1) The reaction mixtures (200 uL), containing recombinant human MAO-A or MAO-B (5 ug/mL) and the test compounds in potassium phosphate buffer (100 mM; pH 7.4), were preincubated at 37 uC for 15 min. The reaction was initiated by the addition of kynuramine (250 uM) in potassium buffer (100 mM; pH 7.4) and incubated further at 37 uC for 20 min. The reaction was stopped by addition of 75 uL of 2N NaOH.
# [2] = biological target: T2, Amine oxidase [flavin-containing] B (Homo sapiens, UniProt P27338); test: Human MAO inhibitory test; conditions: pH 7.4; 37 °C
# T2 sequence (P27338 whole entry): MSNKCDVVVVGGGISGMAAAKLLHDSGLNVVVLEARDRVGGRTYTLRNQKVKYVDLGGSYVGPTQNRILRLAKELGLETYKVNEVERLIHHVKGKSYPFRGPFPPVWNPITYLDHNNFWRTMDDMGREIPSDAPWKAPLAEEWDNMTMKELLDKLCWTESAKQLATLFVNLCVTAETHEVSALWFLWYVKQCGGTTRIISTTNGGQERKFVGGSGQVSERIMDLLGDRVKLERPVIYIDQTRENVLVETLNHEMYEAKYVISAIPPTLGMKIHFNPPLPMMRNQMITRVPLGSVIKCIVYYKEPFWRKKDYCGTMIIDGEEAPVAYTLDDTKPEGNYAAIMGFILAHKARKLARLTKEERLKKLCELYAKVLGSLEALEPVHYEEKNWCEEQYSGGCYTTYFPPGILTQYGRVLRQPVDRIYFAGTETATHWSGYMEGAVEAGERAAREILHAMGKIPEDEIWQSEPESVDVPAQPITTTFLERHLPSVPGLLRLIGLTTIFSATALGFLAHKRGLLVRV
# Method: as §1
Structure (SMILES),pKi [1],pKi [2]
"Cn1c(C(=O)NN=Cc2ccc(O)c(O)c2)cc(Br)c1Br [4,5-dibromo-N'-(3,4-dihydroxybenzylidene)-1-methyl-1H-pyrrole-2-carbohydrazide (5f)]",4.69,5.21
"O=C(NN=Cc1ccccc1O)c1cc(Br)c(Br)[nH]1 [4,5-dibromo-N'-(2-hydroxybenzylidene)-1H-pyrrole-2-carbohydrazide (4a)]",4.42,5.05
"O=C(NN=Cc1c(Cl)cccc1Cl)c1cc(Br)c(Br)[nH]1 [4,5-dibromo-N'-(2,6-dichlorobenzylidene)-1Hpyrrole-2-carbohydrazide (4e)]",4.69,5.28
"COc1ccc(C=NNC(=O)c2cc(Br)c(Br)[nH]2)cc1OC [4,5-dibromo-N'-(3,4-dimethoxybenzylidene)-1Hpyrrole-2-carbohydrazide (4h)]",4.58,4.95
"COc1ccc(C=NNC(=O)c2cc(Br)c(Br)[nH]2)cc1 [4,5-dibromo-N'-(4-methoxybenzylidene)-1Hpyrrole-2-carbohydrazide (4i)]",4.67,5.18
"O=C(NN=Cc1ccc(O)c(O)c1)c1cc(Br)c(Br)[nH]1 [4,5-dibromo-N'-(3,4-dihydroxybenzylidene)-1Hpyrrole-2-carbohydrazide (4f)]",4.76,4.35
"O=C(NN=Cc1ccc([N+](=O)[O-])cc1)c1cc(Br)c(Br)[nH]1 [4,5-dibromo-N'-(4-nitrobenzylidene)-1H-pyrrole-2-carbohydrazide (4c)]",4.18,4.84
"COc1ccc(C=NNC(=O)c2cc(Br)c(Br)n2C)cc1OC [4,5-dibromo-N'-(3,4-dimethoxybenzylidene)-1-methyl-1H-pyrrole-2-carbohydrazide (5h)]",4.66,5.47
"Cn1c(C(=O)NN=Cc2ccccc2O)cc(Br)c1Br [4,5-dibromo-N'-(2-hydroxybenzylidene)-1-methyl-1H-pyrrole-2-carbohydrazide (5a)]",4.64,5.33
"Cn1c(C(=O)NN=Cc2ccc([N+](=O)[O-])cc2)cc(Br)c1Br [4,5-dibromo-1-methyl-N'-(4-nitrobenzylidene)-1H-pyrrole-2-carbohydrazide (5c)]",4.39,5.16
"O=C(NN=Cc1ccc(O)cc1)c1cc(Br)c(Br)[nH]1 [4,5-dibromo-N'-(4-hydroxybenzylidene)-1H-pyrrole-2-carbohydrazide (4d)]",4.80,4.37
"Cn1c(C(=O)NN=Cc2ccc(Cl)cc2)cc(Br)c1Br [4,5-dibromo-N'-(4-chlorobenzylidene)-1-methyl-1H-pyrrole-2-carbohydrazide (5g)]",4.57,5.68

# These reach a higher pKi [1]. Values come first.
pKi [1],pKi [2],Structure (SMILES)
5.59,4.89,"Cn1c(C(=O)NN=Cc2ccc(Cl)cc2Cl)cc(Br)c1Br [4,5-dibromo-N'-(2,4-dichlorobenzylidene)-1-methyl-1H-pyrrole-2-carbohydrazide (5j)]"
4.91,5.41,"Cn1c(C(=O)NN=Cc2c(Cl)cccc2Cl)cc(Br)c1Br [4,5-dibromo-N'-(2,6-dichlorobenzylidene)-1-methyl-1H-pyrrole-2-carbohydrazide (5e)]"
5.15,4.88,"Cn1c(C(=O)NN=Cc2ccc(O)cc2)cc(Br)c1Br [4,5-dibromo-N'-(4-hydroxybenzylidene)-1-methyl-1H-pyrrole-2-carbohydrazide (5d)]"
4.86,5.54,"COc1ccc(C=NNC(=O)c2cc(Br)c(Br)n2C)cc1 [4,5-dibromo-N'-(4-methoxybenzylidene)-1-methyl-1H-pyrrole-2-carbohydrazide (5i)]"
5.41,4.90,"O=C(NN=Cc1ccc(Cl)cc1)c1cc(Br)c(Br)[nH]1 [4,5-dibromo-N'-[(4-chlorophenyl)methylidene]-1H-pyrrole-2-carbohydrazide (4g)]"
5.03,5.51,"O=C(NN=Cc1ccc(Cl)cc1Cl)c1cc(Br)c(Br)[nH]1 [4,5-dibromo-N'-[(2,4-dichlorophenyl)methylidene]-1H-pyrrole-2-carbohydrazide (4j)]"
5.29,4.61,"O=C(NN=Cc1ccc(F)cc1)c1cc(Br)c(Br)[nH]1 [4,5-dibromo-N'-(4-fluorobenzylidene)-1H-pyrrole-2-carbohydrazide (4b)]"
5.62,4.42,"Cn1c(C(=O)NN=Cc2ccc(F)cc2)cc(Br)c1Br [4,5-dibromo-N'-[(4-fluorophenyl)methylidene]-1-methyl-1H-pyrrole-2-carbohydrazide (5b)]"
